According to patent publication US9062095B2, “Mutant double cyclized receptor peptides inhibiting β1-adrenoceptor antibodies” (JULIUS-MAXIMILIANS-UNIVERSTITAT-WURZBURG, priority 2007, dated 2015):
Positions of bridges follow the written chain, without caps; N, C: chain ends.

System: beta1-receptor antibodies
Experiment: in vivo prevention study: five prophylactic peptide applications, serum antibody-titers by ELISA
Set-up: species or system rat
Details: 1.0 mg/kg body weight i.v., 4-weekly, prevention protocol (FIG. 12)
Protocol: FIG. 12 is a diagram resuming the in vivo blocking capacity of in total five (prophylatic) applications of various linear and cyclic beta1-ECII-peptides, started 3 months after the first immunization (and two subsequent beta1-ECII/GST-antigen-boosts, corresponding to a prevention protocol). Serum-titers of the beta1-receptor antibodies were determined before and 18-20 h after each peptide injection (abscissa, time in months) and are given in % of the corresponding antibody-titers of immunized untreated rats (y-axis, ordinate). The injected peptides were: 25AA Cys/Cys linear peptide (black squares), […] (white squares), 18AA Cys/Cys cyclopeptide (black diamond), 18AA Cys/Ser cyclopeptide mutant (white diamonds), and the 18AA Cys/Ser linear peptide mutant (vertically hatched diamonds). […] Black circles indicate antibody-titers of untreated regularly (every 4 weeks) immunized animals serving as reference, set at 100%.
The in-vivo blocking effects of both 25AA and 18AA Cys/Ser mutant cyclopeptides (with a Gln closure site), the 18AA Ser/Cys mutant cyclopeptide, and a mutated linear 18AA Cys/Ser peptide were analyzed after intravenous (i.v.) injection of 1.0 mg/kg body weight (Bw) of each construct into freshly immunized antibody-positive rats (i.e., use of cyclo-peptides in a kind of “prevention” study), with a first cyclopeptide-application 3 months after the initial immunization (and two subsequent boost at months 2 and 3). In total, five prophylactic applications of the various constructs were given at 4-weekly intervals, always two weeks after the monthly continued antigen boost. Sera were drawn 18-20 hours after i.v. injection and assayed for reactivity by ELISA using the 3 Cys-containing linear 25AA Cys/Cys-peptide as an antigen (FIG. 12).

Cyclo-Ala-Asp-Glu-Ala-Arg-Arg-Cys-Tyr-Asn-Asp-Pro-Lys-Cys-Ser-Asp-Phe-Val-Gln (cyclo(ADEARRCYNDPKCSDFVQ); disulfide 7-13; SMILES CC(C)[C@@H]1NC(=O)[C@H](Cc2ccccc2)NC(=O)[C@H](CC(=O)O)NC(=O)[C@H](CO)NC(=O)[C@@H]2CSSC[C@H](NC(=O)[C@H](CCCNC(=N)N)NC(=O)[C@H](CCCNC(=N)N)NC(=O)[C@H](C)NC(=O)[C@H](CCC(=O)O)NC(=O)[C@H](CC(=O)O)NC(=O)[C@H](C)NC(=O)[C@H](CCC(N)=O)NC1=O)C(=O)N[C@@H](Cc1ccc(O)cc1)C(=O)N[C@@H](CC(N)=O)C(=O)N[C@@H](CC(=O)O)C(=O)N1CCC[C@H]1C(=O)N[C@@H](CCCCN)C(=O)N2) [18AA Cys/Ser mutant (Gln-)cyclopeptide, disulphide bond Cys7-Cys13, ring closure Ala1-Gln18]
antibody-titer decrease after 5 injections, compared with untreated immunized animals: 54.5±2%
